Results as given in article PMC12926254, “Novel pyrazole carboxylate derivatives as lonazolac bioisosteres with selective COX-2 inhibition: design, synthesis and anti-inflammatory activity” (Molecular Diversity, 2025).

What was measured:
[1] = MTS cytotoxicity assay; type: cell-based; settings: mouse, RAW 264.7 macrophages (heading: LPS-induced), read-out: Cytotoxicity IC50 (LPS-induced RAW 264.7 cells)
Protocol: Using Dulbecco’s Modified Eagle Medium (DMEM, Biowest L0060) supplemented with 10% foetal bovine serum (FBS) (Biowest, S1810) and 1% anti-biotic and anti-mycotic (Biowest, L0010-100), the RAW264.7 macrophage cell line (ATCC ® TIB-71TM) was cultivated. The cells were then incubated at 37 °C with 5% CO2 until they were confluent, which should be between 70 and 80%. After two to three days, the growth media was regularly changed. Trypsin–EDTA was then used to wash and collect the cells (Biowest, L0931-500).
The MTS (3-(4,5-dimethylthiazol-2-yl)-5-(3-carboxymethoxy-phenyl)-2-(4-sulfophenyl)-2H-tetrazolium) test (Promega, ab197010) was used to determine cell viability. In short, a 96-well plate was seeded with 5 × 10^3 cells per well, and the cells were then incubated for 24 h at 37 °C and 5% CO2. The cells were then re-incubated for 24 h at 37 °C and 5% CO2 after the medium was discarded and replaced with 180 µl of fresh growth media and 20 µl of sample (1000 ug, 250 ug, 63 ug, 16 ug, and 4 ug µg/mL). 20 µl of MTS was then added to each well, and the mixture was incubated for three hours at 37 °C with 5% CO2. […] Control cells were those that received no treatment.

[2] = target: T1, COX-1 (Ovis aries, UniProt P05979); assay: In vitro COX-1 inhibition (COX-1 Inhibitor Screening Kit-K548, Biovision); type: biochemical; settings: mean of six values ± standard deviation
T1 construct: purchased Biovision K548
T1 sequence (P05979 25-600): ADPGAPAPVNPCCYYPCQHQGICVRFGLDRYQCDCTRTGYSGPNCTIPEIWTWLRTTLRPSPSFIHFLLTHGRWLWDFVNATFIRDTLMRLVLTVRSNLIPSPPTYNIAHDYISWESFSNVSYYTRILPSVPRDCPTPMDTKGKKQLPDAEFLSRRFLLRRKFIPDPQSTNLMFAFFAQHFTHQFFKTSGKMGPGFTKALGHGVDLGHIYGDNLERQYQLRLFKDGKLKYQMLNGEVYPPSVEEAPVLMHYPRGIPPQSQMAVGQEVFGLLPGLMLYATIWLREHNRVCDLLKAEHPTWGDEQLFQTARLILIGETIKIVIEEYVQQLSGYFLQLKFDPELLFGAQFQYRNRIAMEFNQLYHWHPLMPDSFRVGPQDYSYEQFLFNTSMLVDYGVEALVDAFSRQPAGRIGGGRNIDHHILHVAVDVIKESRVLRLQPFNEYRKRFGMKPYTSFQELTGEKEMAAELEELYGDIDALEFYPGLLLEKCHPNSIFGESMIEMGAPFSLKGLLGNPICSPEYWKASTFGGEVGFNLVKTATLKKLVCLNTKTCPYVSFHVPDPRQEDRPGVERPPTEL
Protocol: (§1) The IC50 value of the tested compounds was determined.
COX-1 inhibitor Screening Protocol: Dissolve the tested compounds in DMSO. Use COX assay buffer to dilute the relevant test concentration by 10X before using. Place 10 µl of diluted test inhibitor or assay buffer in the specified wells instead of the sample screen (S) or enzyme control (EC; no inhibitor). To one of the wells, add 2 µl of SC560 and 8 µl of COX Assay Buffer as an inhibitor control (IC). Before using, combine 2 µl of COX Cofactor with 398 µl of COX Assay Buffer to dilute COX cofactor 200 times. Blend thoroughly. Just before using, mix 5 µl of the provided arachidonic acid with 5 µl of NaOH to make the arachidonic acid solution. Combine quickly using a vortex. To dilute the arachidonic acid/NaOH solution 10 times, add 90 µl of water. There should be 80 µl of reaction mix in each well. Using a multi-channel pipette, add 10 µl of diluted arachidonic acid/NaOH solution to each well to initiate all the reactions at once.

[3] = test system: PGE2; assay: PGE2 production in LPS-activated RAW 264.7 macrophages (ELISA); settings: Mus musculus, RAW264.7, read-out: PGE2 IC50
[4] = test system: TNF-α; assay: TNF-α production in LPS-activated RAW 264.7 macrophages (ELISA); settings: Mus musculus, RAW264.7, read-out: TNF-α IC50
[5] = target: T2, COX-2 (Homo sapiens, UniProt P35354); assay: In vitro COX-2 inhibition (COX-2 Inhibitor Screening Kit-K547, Biovision); type: biochemical; settings: for IC50: mean of six values ± standard deviation
T2 construct: purchased Biovision K547
T2 sequence (P35354 18-604): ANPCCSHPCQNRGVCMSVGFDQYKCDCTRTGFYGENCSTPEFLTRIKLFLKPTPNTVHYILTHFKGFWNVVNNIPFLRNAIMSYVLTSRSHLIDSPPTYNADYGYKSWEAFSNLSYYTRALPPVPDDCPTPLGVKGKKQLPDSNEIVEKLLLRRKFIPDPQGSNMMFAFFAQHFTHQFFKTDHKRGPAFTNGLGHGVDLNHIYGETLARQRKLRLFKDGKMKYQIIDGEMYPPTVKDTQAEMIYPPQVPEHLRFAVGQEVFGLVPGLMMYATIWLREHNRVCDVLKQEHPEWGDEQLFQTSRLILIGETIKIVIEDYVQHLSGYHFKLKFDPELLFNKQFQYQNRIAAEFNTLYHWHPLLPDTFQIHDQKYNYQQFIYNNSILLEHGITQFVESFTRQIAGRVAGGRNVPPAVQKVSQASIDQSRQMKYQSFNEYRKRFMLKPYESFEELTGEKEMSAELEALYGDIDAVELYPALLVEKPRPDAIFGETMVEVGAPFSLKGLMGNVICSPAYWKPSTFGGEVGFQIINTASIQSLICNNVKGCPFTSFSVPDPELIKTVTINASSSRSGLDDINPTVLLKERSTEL
Protocol: as §1
COX-2 inhibitor Screening Protocol: Dissolve the tested compounds in DMSO. Use COX Assay Buffer to dilute the relevant test concentration by 10X before using. Place 10 µl of diluted test inhibitor or Assay Buffer in the specified wells instead of the sample screen (S) or enzyme control (EC; no inhibitor). […] Before using, combine 2 µl of COX Cofactor with 398 µl of COX Assay Buffer to dilute COX Cofactor 200 times. Blend thoroughly. Just before using, mix 5 µl of the provided arachidonic acid with 5 µl of NaOH to make the arachidonic acid solution. Combine quickly using a vortex. To dilute the arachidonic acid/NaOH solution 10 times, add 90 µl of water. There should be 80 µl of reaction mix in each well. Using a multi-channel pipette, add 10 µl of diluted arachidonic acid/NaOH solution into each well to initiate the reactions concurrently.

[6] = test system: carrageenan-induced rat paw edema; assay: Carrageenan-induced rat paw edema assay; type: in vivo

IC50 [2] | IC50 [3] | IC50 [4] | IC50 [5] | COX-2 S.I. ([5]; COX-1 IC50/COX-2 IC50) | SMILES | IC50 at 24 h [1] | % inhibition (edema) ([6]; 10 mg/kg) | % inhibition (edema) ([6]; 25 mg/kg)
6.88 ± 0.25 µM | 0.28 ± 0.032 µM | 1.04 ± 0.042 µM | 0.103 ± 0.003 µM |  | CCOC(=O)COc1ccc(C2=NN(c3ccc(S(C)(=O)=O)cc3)C(c3ccc(Br)cc3)C2)cc1 (stereo not shown) [Compound 15 h, Ethyl 2-(4-(5-(4-bromophenyl)-1-(4-(methylsulfonyl)phenyl)-4,5-dihydro-1H-pyrazol-3-yl)phenoxy)acetate] | 179 ± 6.37 µM | 19.49% | 37.98%
11.3 ± 0.45 µM | 0.52 ± 0.029 µM | 0.77 ± 0.025 µM | 0.397 ± 0.013 µM | 28.56 | CCOC(=O)COc1ccc(C2=NN(c3ccc(S(C)(=O)=O)cc3)C(c3ccc(OC)cc3)C2)cc1 (stereo not shown) [Compound 15c, Ethyl 2-(4-(5-(4-methoxyphenyl)-1-(4-(methylsulfonyl)phenyl)-4,5-dihydro-1H-pyrazol-3-yl)phenoxy)acetate] | 301 ± 10.7 µM | 22.32% | 31.51%
15.5 ± 0.61 µM | 0.33 ± 0.021 µM | 1.2 ± 0.06 µM | 0.221 ± 0.007 µM |  | CCOC(=O)COc1ccc(C2=NN(c3ccc(S(C)(=O)=O)cc3)C(c3cc(OC)c(OC)c(OC)c3)C2)cc1 (stereo not shown) [Compound 15d, Ethyl 2-(4-(1-(4-(methylsulfonyl)phenyl)-5-(3,4,5-trimethoxyphenyl)-4,5-dihydro-1H-pyrazol-3-yl)phenoxy)acetate] | 183 ± 6.52 µM | 29.52% | 36.61%
